Reference: patent US12611423B2, “Medical use of tafoxiparin” (DILAFOR AB, priority 2022, dated 2026)

Test system: term pregnant, nulliparous women with an unripe cervix
Assay: Clinical phase II trial PPL17 (Parts A and B), subcutaneous tafoxiparin vs placebo
Assay type: in vivo, human
Conditions: for women achieving spontaneous onset of labor (FIG. 1): placebo 28.7%; for number of subjects (women) that reach spontaneous onset of labor / subjects (women) that reach spontaneous onset of labor, % of n: cumulative
Protocol: A clinical phase II trial is performed as a randomized, double-blind, placebo-controlled, parallel-group proof of concept study (Part A) with a conditional dose finding follow up study (Part B) to evaluate the efficacy, safety, tolerability and dose response of subcutaneously administered tafoxiparin as a supplement to induction therapy in term pregnant, nulliparous women with an unripe cervix. The study is performed in Sweden and Finland (PPL17), and an EMA (European Medicines Agency) description of the study can be found on the EU Clinical Trials Register web (www.clinicaltrialsregister.eu/ctr-search/search?query=PPL17).
A total of 170 term pregnant women are randomized to receive either 300 mg of tafoxiparin, or corresponding placebo (vehicle), administered subcutaneously every 24±3 hours and up to a total of 7 doses, or until partus (Part A).
In the dose finding follow up study (Part B), a total of 164 term pregnant women are randomized to receive either 75 or 150 mg of tafoxiparin administered subcutaneously every 24±3 hours […] and up to a total of 7 doses, or until partus.
To assess the efficacy of tafoxiparin on cervical ripening/cervical ripening rate, during and up to the first seven days of treatment, measured by Bishop score. All women must be examined to check the cervical state before enrollment.
Tafoxiparin/Placebo is supplied by Dilafor AB to the site as kits designed to constitute 300 mg of tafoxiparin or placebo for daily administration. Apart from the active substance, each ml of study drug will constitute 0.015 M phosphate buffer. The study medication kit for each patient will contain 8 doses consisting of 2 vials containing a minimum extractable volume of 1.6 ml of 150 mg/ml of tafoxiparin or placebo. One dose is a reserve dose in case a dose is rendered unusable. The investigational product should be administered subcutaneously every 24±3 hours by the site staff for up to 7 doses, or until partus. At each dosing time 1.0 ml of the drug will be extracted from each of the 2 vials and injected as separate s.c. injections in the abdominal or hip region.
Tafoxiparin/Placebo is supplied by Dilafor AB to the site as kits designed to constitute 75 or 150 mg of tafoxiparin for daily administration. Apart from the active substance, each ml of study drug will constitute 0.015 M phosphate buffer. The study medication kit for each patient will contain 8 doses consisting of 2 vials for each injection occasion containing a minimum extractable volume of 1.6 ml of 150 mg/ml of tafoxiparin or placebo. For subjects receiving 75 mg of tafoxiparin, one vial will contain active substance and one containing placebo. For subjects receiving 150 mg of tafoxiparin, both vials will contain active substance. One dose is a reserve dose in case a dose is rendered unusable. The investigational product should be administered subcutaneously every 24±3 hours by the site staff for up to 7 doses, or until partus. At each dosing time, 0.5 ml of the drug will be extracted from each of the 2 vials and injected as separate s.c. injections in the abdominal or hip region.
If the subject is found to be eligible for the study, they will be randomized to study treatment, i.e. 300 mg of tafoxiparin or corresponding placebo daily (Part A), or 75 or 150 mg daily (Part B).
The study medication will be administered subcutaneously in the abdominal or hip region for up to a total of 7 doses or until labor induction or spontaneous onset of labor. If the cervix is still unripe after 7 doses of IMP, the patient is given cervical balloon catheter as a mean of labor induction.
Subjects who enter into spontaneous onset of labor after 1-7 doses of IMP should be managed according to clinical routines.
Subjects who are given 4-7 doses without entering into spontaneous onset of labor, but with a ripe cervix (Bishop Score ≥6), should be induced into labor by amniotomy and oxytocin treatment, but not before 4 treatment doses have been given. […]

In the case of tafoxiparin, the “women achieving spontaneous onset of labor (FIG. 1)” value (75 mg s.c. once daily up to 7 doses, 33 women of 82, p-value 0.102) is reported as 40.2%, the “women reaching spontaneous onset of labor with uncomplicated delivery” value (75 mg, 22 of the 29 women, placebo 54.5%) is reported as 75.9% and the “number of subjects (women) that reach spontaneous onset of labor” value (“number of subjects” for short) (75 mg, Study day 1, n = 33) is reported as 0. For the same substance, the “subjects (women) that reach spontaneous onset of labor, % of n” value (“subjects … % of n” for short) (75 mg, Study day 1, n = 33) was “(0%)”, the “number of subjects” value (75 mg, Study day 2, n = 33) was 3 and the “subjects … % of n” value (75 mg, Study day 2, n = 33) was “(9%)”. For the same substance, the “number of subjects” value (75 mg, Study day 3, n = 33) was 6, the “subjects … % of n” value (75 mg, Study day 3, n = 33) was “(18%)” and the “number of subjects” value (75 mg, Study day 4, n = 33) was 11. The “subjects … % of n” value (75 mg, Study day 4, n = 33) was “(33%)”, the “number of subjects” value (75 mg, Study day 5, n = 33) was 22 and the “subjects … % of n” value (75 mg, Study day 5, n = 33) was “(67%)”. For the same substance, the “number of subjects” value (75 mg, Study day 6, n = 33) was 25, the “subjects … % of n” value (75 mg, Study day 6, n = 33) was “(76%)” and the “number of subjects” value (75 mg, Study day 7, n = 33) was 32. For the same substance, the “subjects … % of n” value (75 mg, Study day 7, n = 33) was “(97%)”, the “number of subjects” value (75 mg, Study day 8, n = 33) was 33 and the “subjects … % of n” value (75 mg, Study day 8, n = 33) was “(100%)”. The “Fetal distress as indication for operative delivery (ODFD), number of women” value (75 mg, n = 83) was 16, the “Labor induced with PGE-1, number of women” value (75 mg, n = 83) was 7 and the “Labor induced with amniotomy, number of women” value (75 mg, n = 83) was 46. For the same substance, the “Labor induced with oxytocin, number of women” value (75 mg, n = 83) was 34, the “Labor induced, number of women” value (75 mg, n = 83) was 48 and the “Labor induction with Balloon catheter, number of women” value (75 mg, n = 83) was 35. The “Number of patients with operative delivery” value (75 mg, n = 83) was 32, the “Labor induced with PGE-1, % of women” value (75 mg, n = 83, placebo 10.2%) was 8.4% and the “Fetal distress as indication for operative delivery (ODFD), % of women” value (75 mg, n = 83, placebo 22.7%) was 19.3%. The “patients with operative delivery, %” value (75 mg, n = 83, placebo 45.5%) was 38.6%, the “Labor induced with oxytocin, % of women” value (75 mg, n = 83, placebo 54.5%) was 41.0% and the “Labor induced with amniotomy, % of women” value (75 mg, n = 83, placebo 56.8%) was 55.4%. The “Labor induction with Balloon catheter, % of women” value (75 mg, n = 83, placebo 58.0%) was 42.2%, the “Labor induced, % of women” value (75 mg, n = 83, placebo 70.5%) was 57.8% and the “women needing instrumental delivery (FIG. 4, vaginal mode of partus)” value (75 mg, women with spontaneous onset of labor, 7 of the 29 women, p-value=0.181, placebo 45.5%) was 24.1%. The “women needing instrumental delivery or caesarian section to reach partus (FIG. 5)” value (75 mg, women with spontaneous onset of labor, 11 of 33 women, placebo 52%) was 33.3%, the “women reaching partus by vaginal delivery with no need for instrumental delivery nor caesarian section (FIG. 5)” value (75 mg, women with spontaneous onset of labor, 22 of 33 women, placebo 48%) was 66.7% and the “women achieving spontaneous onset of labor (FIG. 1)” value (150 mg s.c. once daily up to 7 doses, 36 women of 85, p-value 0.039) was 42.4%. For the same substance, the “women reaching spontaneous onset of labor with uncomplicated delivery” value (150 mg, 23 of the 32 women, placebo 54.5%) was 71.9%, the “number of subjects” value (150 mg, Study day 1, n = 36) was 0 and the “subjects … % of n” value (150 mg, Study day 1, n = 36) was “(0%)”. The “number of subjects” value (150 mg, Study day 2, n = 36) was 4, the “subjects … % of n” value (150 mg, Study day 2, n = 36) was “(11%)” and the “number of subjects” value (150 mg, Study day 3, n = 36) was 15. For the same substance, the “subjects … % of n” value (150 mg, Study day 3, n = 36) was “(42%)”, the “number of subjects” value (150 mg, Study day 4, n = 36) was 19 and the “subjects … % of n” value (150 mg, Study day 4, n = 36) was “(53%)”. For the same substance, the “number of subjects” value (150 mg, Study day 5, n = 36) was 26, the “subjects … % of n” value (150 mg, Study day 5, n = 36) was “(72%)” and the “number of subjects” value (150 mg, Study day 6, n = 36) was 30. For the same substance, the “subjects … % of n” value (150 mg, Study day 6, n = 36) was “(83%)”, the “number of subjects” value (150 mg, Study day 7, n = 36) was 34 and the “subjects … % of n” value (150 mg, Study day 7, n = 36) was “(94%)”. The “number of subjects” value (150 mg, Study day 8, n = 36) was 35, the “subjects … % of n” value (150 mg, Study day 8, n = 36) was “(97%)” and the “number of subjects” value (150 mg, Study day 9, n = 36) was 36. The “subjects … % of n” value (150 mg, Study day 9, n = 36) was “(100%)”, the “Fetal distress as indication for operative delivery (ODFD), number of women” value (150 mg, n = 85) was 20 and the “Labor induced with PGE-1, number of women” value (150 mg, n = 85) was 7. The “Labor induced with amniotomy, number of women” value (150 mg, n = 85) was 39.
